Key:
[1] = Plasma protein binding / unbound fraction of paliperidone and its enantiomers; type: in vitro ADME, human; settings: human
Source text: Objectives: The primary objective of this study was to investigate the single-dose pharmacokinetics of immediate-release (IR) paliperidone, after oral administration, in subjects having moderate hepatic impairment (“hepatically-impaired subjects”) compared with subjects having normal hepatic function (“healthy subjects”). The secondary objective was to document the plasma protein binding and disposition of the enantiomers of paliperidone. In addition, the tolerability and safety profile of IR paliperidone was compared between hepatically impaired subjects and healthy subjects. Criteria for Evaluation: Pharmacokinetics: Plasma and urine concentrations of the paliperidone enantiomers (+) R078543 and (−) R078544 were determined using an LC-MS/MS method. Concentrations of paliperidone were calculated as the sum of the enantiomer concentrations. In addition, serum and urine concentrations of creatinine were determined for the calculation of CLCR. The protein binding and unbound fraction was determined for the 2 paliperidone enantiomers. The unbound fraction for paliperidone was calculated.

clinical = assay: clinical; set-up: species or system human; settings: in vivo
Source text: Objectives: to investigate the metabolic pathways of paliperidone and excretion of paliperidone and its metabolites in healthy adult male subjects, both CYP2D6 poor and extensive metabolizers, after administration of a single 1-mg oral dose of ^14C-paliperidone. In addition, to evaluate the safety and tolerability of paliperidone, as well as the relationship between genotypes (CYP2D6, CYP3A4, CYP3A5, UGT1A1, and UGT1A6) and exposure to paliperidone and its metabolites.
Methodology: Single-center, single-dose open-label study of the absorption, metabolism, and excretion (AME) of paliperidone in healthy men (3 extensive and 3 poor metabolizers based on CPY2D6 phenotype). […] Each subject received a single oral dose of ^14C-paliperidone with total radioactivity below […] (16 μCi). Blood samples for plasma pharmacokinetic profile were obtained immediately before study drug administration and 0.5, 1, 1.5, 3, 6, 12, 16, 36, 48, 72, 96, 120, 144 and 168 hours postdose. Blood samples were obtained 2, 4, 8, and 24 hours postdose for determination of ^14C in whole blood. Samples for determination of serum creatinine were obtained 2, 4, 8, and 24 hours postdose. Urine was collected immediately prior to drug administration and from 0-4, 4-8, 8-12, 12-16, 16-24, 24-36, 36-48, 48-72, 96-120, 120-144, and 144-168 hours after study drug administration. Fecal samples were colleted per each stool, once before study drug administration and in the period from 0-168 hours after study drug administration. Collections of urine and feces (per 24 hours) were to continue beyond 168 hours, to a maximum of 336 hours (Day 15) for subjects who excrete radioactivity slowly (2 latest 24-hour urine collections each >2% of total radioactive dose) or have <7 feces stool samples over the 0 to 168-hour period. ^14C radioactivity was measured in plasma, urine, and feces. Aliquots of the 0- through 24-hour urine collections were analyzed for cretinine. Plasma concentrations of paliperidone and risperidone were determined by means of a validated LC-MS/MS method. The ^14C-labeled moiety in plasma and urine was determined by liquid scintillation counting. For all plasma samples, the lower limits of quantification for paliperidone and risperidone were 0.100 ng/mL. For all plasma and urine samples the lower limits of quantification for ^14C-palieridone was 72 dpm/mL (=2.0 n g-eq/mL).
Number of Subjects (Planned and Analyzed): Six healthy men, 3 extensive and 3 poor metabolizers based on CYP2D6 phenotype were to participate in the study. Five subjects, 3 extensive and 2 poor metabolizers, received a single dose of ^14C-paliperidone, completed the study (i.e., completed all assessments through Day 8) and were considered valuable for safety (the Safety Analysis Set), as well as for pharmacokinetics.
Test Product, Dose and Mode of Administration Batch No.: Single oral 0.988-mg dose of ^14C-paliperidone, oral solution (aqueous formulation at a final concentration of 0.0984 mg/mL). Batch No.: unlabeled paliperidone oral solution: ZR076477EIA031 (manufacturing date: 23 Apr. 2003, retest date: 23 Oct. 2004): ^14C-paliperidone: 1763 (expiration date: not applicable)
Criteria for Evaluation: Pharmacokinetics: Plasma paliperidone. ^14C radioactivity and metabolite profiles were determined. Plasma Cmax, tmax, AUClast, AUC24, AUC∞, λZ, t1/2term, CL/F of ^14C and paliperidone were estimated by non-compartmental analysis. Based on the individual urine excretion data and on the serum creatinine concentrations, Ae, Ae, % dose, CLR, CLR,24h and CLer and paliperidone and CLGFR, and CLact of paliperidone were estimated. The excretion half-life of ^14C in urine was also estimated based on excretion rate-time profiles.
Statistical Methods: Pharmacokinetics: Plasma concentrations of ^14C and paliperdone as well as estimates for pharmacokinetic parameters were listed and graphically presented, and the excretion analysis of total radioactivity in plasma, urine and feces were summarized. […]

[2] = Safety and tolerability of 1 mg IR paliperidone in healthy and hepatically-impaired subjects; type: in vivo, human
Description: Methodology: This was a single-dose, parallel-group, open-label, single-center, Phase I study of IR paliperidone in subjects having either normal or moderately impaired hepatic function. The groups, consisting of 10 subjects each, were demographically matched with respect to age, weight, sex, and ethnicity. The study consisted of a screening period of up to 3 weeks and an open-label, single-dose treatment period (Days 1 through 5). On Day 1, a single dose of 1 mg IR paliperidone oral solution was administered after a fast of at least 10 hours; subjects continued to fast for 4 hours following study drug administration. The 96-hour follow-up consisted of serial sample collection of blood and urine for pharmacokinetic analysis and safety and tolerability assessments. Subjects remained confined to the study site through the 72-hour pharmacokinetics sampling, and consumed standard institutional meals while in the study site. Subjects were released after the 72-hour sampling, then returned to the study site on Day 5 before the 96-hour pharmacokinetics sampling: end-of-study procedures were performed immediately hereafter. A blood sample for DNA isolation was collected to allow for genetic analysis as necessary. Safety: Adverse events, clinical laboratory tests, including prolactin, vital sign measurements, physical examinations, and 12-lad electrocardiograms (ECGs) were analyzed to assess safety. Safety: All subjects were analyzed; statistical analyses were description [? Does info need to be added here?].

[3] = hepatically-impaired subjects (n = 10)

Cc1nc2n(c(=O)c1CCN1CCC(c3noc4cc(F)ccc34)CC1)CCCC2O (centres unmarked) [Paliperidone, paliperidone]
fraction unbound ([1]; Healthy Subjects (n = 10)): 0.279
fraction unbound ([1]; Hepatically-Impaired Subjects (n = 10; paliperidone n = 8)): 0.353
relative increase in unbound fraction vs healthy subjects ([1]; vs healthy subjects, read-out: unbound fraction higher in hepatically-impaired subjects): ~0.27
effect of genotype (CYP2D6, UGT1A1 or UGT1A6) on the plasma exposure of TR and UD (clinical): No effect of genotype
share of UD excreted by means of filtration (clinical; male, human): About 50%
CL renal (clinical; male, human, CLR): 53.1 ± 9.47 mL/min
Tmax (clinical; male, human, po): 1.33 ± 0.289 h
cumulative urinary excretion of unchanged paliperidone (clinical; male, human, po, 7 days): 59%
AUC (clinical; male, human, po, AUC24): 111 ± 22 ng·h/mL
AUC(0-inf) (clinical; male, human, po, AUC∞): 187 ng·h/mL
Cmax (clinical; male, human, po, Cmax): 8.85 ng/mL
Tmax (clinical; male, human, po, tmax): 1.3 h
tolerability ([2]; 1 mg, healthy and hepatically-impaired subjects): tolerated equally well
clinically important abnormal ECG values (including QT values) ([2]; both groups): no subjects had clinically important abnormal ECG values
orthostatic hypotension ([2]; both groups): no subject in either group met the criteria for orthostatic hypotension
subjects with treatment-emergent increase in hepatic enzymes ([2]; healthy subjects): 1
subjects with increases in prolactin levels reported as adverse events ([2]; healthy subjects (n = 10)): 6
subjects with treatment-emergent increase in hepatic enzymes ([2]; hepatically-impaired subjects): 1
subjects reporting dizziness [2, 3]: 2
subjects with increases in prolactin levels reported as adverse events [2, 3]: 8

Source: patent publication US20070197591A1, “USE OF PALIPERIDONE FOR THE TREATMENT OF A MENTAL DISORDER IN A PSYCHIATRIC PATIENT WITH REDUCED HEPATIC FUNCTION” (priority 2005, published 2007)
